# Laboratory results from BindingDB's records for doi:10.1016/j.bmcl.2011.12.067 (Dalian University of Technology, 2012).
# Target: Epidermal growth factor receptor (Homo sapiens, UniProt P00533)
# Test: Inhibition of wild-type EGFR expressed using baculovirus expression system by ELISA
# Sequence of Epidermal growth factor receptor (P00533 whole entry): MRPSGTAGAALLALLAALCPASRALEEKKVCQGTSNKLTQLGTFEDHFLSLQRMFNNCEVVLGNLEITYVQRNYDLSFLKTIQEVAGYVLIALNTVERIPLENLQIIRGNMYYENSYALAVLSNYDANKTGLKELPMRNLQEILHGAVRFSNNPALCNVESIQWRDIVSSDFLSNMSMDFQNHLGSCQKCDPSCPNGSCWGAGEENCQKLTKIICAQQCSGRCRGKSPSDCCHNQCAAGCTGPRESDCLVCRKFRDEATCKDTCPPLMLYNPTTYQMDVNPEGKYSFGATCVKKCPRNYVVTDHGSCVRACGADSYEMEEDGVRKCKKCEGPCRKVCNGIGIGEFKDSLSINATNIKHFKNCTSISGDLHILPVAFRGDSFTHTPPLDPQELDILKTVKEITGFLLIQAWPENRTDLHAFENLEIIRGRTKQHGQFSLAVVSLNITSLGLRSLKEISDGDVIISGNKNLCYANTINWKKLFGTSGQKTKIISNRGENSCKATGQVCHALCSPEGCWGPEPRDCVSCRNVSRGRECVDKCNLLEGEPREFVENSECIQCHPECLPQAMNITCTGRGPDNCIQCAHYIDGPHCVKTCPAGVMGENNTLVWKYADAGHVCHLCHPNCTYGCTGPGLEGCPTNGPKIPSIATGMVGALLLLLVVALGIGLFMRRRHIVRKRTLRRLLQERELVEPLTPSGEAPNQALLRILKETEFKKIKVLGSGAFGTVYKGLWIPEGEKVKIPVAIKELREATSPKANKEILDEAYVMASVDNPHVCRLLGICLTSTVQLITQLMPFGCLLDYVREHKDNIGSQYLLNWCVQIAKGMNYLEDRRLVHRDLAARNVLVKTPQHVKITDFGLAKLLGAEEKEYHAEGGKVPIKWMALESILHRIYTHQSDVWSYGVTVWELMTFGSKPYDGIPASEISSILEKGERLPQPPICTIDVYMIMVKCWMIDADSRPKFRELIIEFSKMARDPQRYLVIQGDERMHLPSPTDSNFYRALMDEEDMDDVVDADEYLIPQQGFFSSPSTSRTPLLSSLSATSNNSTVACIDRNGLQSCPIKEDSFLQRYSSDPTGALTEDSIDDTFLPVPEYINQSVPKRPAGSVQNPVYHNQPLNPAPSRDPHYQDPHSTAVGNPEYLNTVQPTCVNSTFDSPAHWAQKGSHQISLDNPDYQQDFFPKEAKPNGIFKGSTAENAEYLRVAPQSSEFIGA
row,IC50,SMILES
1,> 100 µM,CNc1nc(N=NCc2ccc(OC)cc2)nc(Nc2ccccc2)n1
2,> 100 µM,CNc1nc(N=NCc2ccc(O)cc2)nc(Nc2ccccc2)n1
3,> 100 µM,Cn1cc(NC(=O)CN=O)c(=O)n1-c1ccccc1
